Read-outs that look alike come from different tables or passages of the source.
B1: E. coli aquaporin Z, P60844 1-231 (natural protein)
chain: MFRKLAAECFGTFWLVFGGCGSAVLAAGFPELGIGFAGVALAFGLTVLTMAFAVGHISGGHFNPAVTIGLWAGGRFPAKEVVGYVIAQVVGGIVAAALLYLIASGKTGFDAAASGFASNGYGEHSPGGYSMLSALVVELVLSAGFLLVIHGATDKFAPAGFAPIAIGLALTLIHLISIPVTNTSVNPARSTAVAIFQGGWALEQLWFFWVVPIVGGIIGGLIYRTLLEKRD

What was measured:
hAQP1 [1] = biological target: T1, hAQP1 (Homo sapiens, UniProt P29972); test: Thermal aggregation shift assay (differential static light scattering, DSLS); assay type: binding; parameters: key to ΔTagg (+/−): positive (+) Thermal Shift; ΔTagg (+/−); conditions: for ΔTagg (+/−): 1 mM of each fragment; for Tagg: hAQP1 incubated in 1 mM of fragment, hAQP1 alone 54.6 ± 0.1; for dose-dependency of hAQP1 stabilization: increasing concentration of fragment; for Tagg of hAQP1: secondary dose-response assay
T1 construct: made in house; host or cells: Spodoptera frugiperda (Sf9) insect cells, baculovirus vector pFB-LIC-Bse
T1 sequence (P29972 1-269): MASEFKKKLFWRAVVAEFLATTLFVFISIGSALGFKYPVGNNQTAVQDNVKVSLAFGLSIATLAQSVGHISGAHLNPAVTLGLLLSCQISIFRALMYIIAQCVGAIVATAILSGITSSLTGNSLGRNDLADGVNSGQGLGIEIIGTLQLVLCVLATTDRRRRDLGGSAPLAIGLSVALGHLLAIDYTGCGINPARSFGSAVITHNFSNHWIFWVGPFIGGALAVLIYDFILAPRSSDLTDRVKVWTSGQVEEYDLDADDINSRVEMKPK
Protocol: Temperature-dependent protein aggregation was measured with static light scattering (Stargazer-384, Harbinger Biotech, Markham, ON, Canada) as previously described with modifications. Briefly, purified hAQP1 in PBS pH 7.4 and 1% OG at a concentration of 0.2 mg/mL, incubated with test compound or fragment at the appropriate concentration at room temperature for 15 min, and aliquoted in a clear-bottom 384-well plate (Nunc, Roskilde, Denmark) to a volume of 45 µL in triplicate. The final concentration of DMSO was kept at 5%. Mineral oil (45 µL) covered the sample to prevent evaporation. The sample was heated from 25 to 80 °C at a rate of 1 °C per minute. Incident light was shone on the protein drop from beneath at a 30° angle, and a CCD camera was used to measure the scattered light intensity every 30 s to monitor protein aggregation. Data collated was analyzed using the Bioactive software (Harbinger Biotech). Intensities were plotted as a function of temperature and fitted to the Boltzmann equation by non-linear regression. The point of inflection of the fitted curve defined the temperature of aggregation (Tagg).

hAQP1 [2] = biological target: T1, hAQP1; test: Surface plasmon resonance (SPR) fragment binding to immobilized hAQP1; conditions: for SPR binding behaviour: sensorgrams 6.25 to 800 µM
Protocol: Surface Plasmon Resonance measurements were performed using Biacore T-200 (GE Healthcare, Uppsala, Sweden) using the running buffer PBS pH 7.4 supplemented with 1% OG and 5% dimethylsulfoxide (DMSO) at 25 °C. Purified recombinant hAQP1 was directly immobilized onto Biacore Sensor Chip CM5 Research Grade (GE Healthcare, Little Chalfont, UK) using standard amine-coupling chemistry at a flow rate of 5 µL/min. Carboxyl derivatives on CM5 dextran surface were activated with a 10-min 1:1 mixture of 0.2 M N-ethyl-N′-(3-([…])propyl)carbodiimide (EDC) and 50 mM N-hydroxysuccinimide (NHS). The aquaporins were diluted in 10 mM sodium acetate, pH 5.0 and injected across the surface separately. Addition of 0.5 M ethanolamine–HCl at pH 8.5 for 10 min was used to block unreacted activated carboxyl derivates.
The Maybridge Ro3 Diversity Fragment Library (Thermo Fisher Scientific, Waltham, MA, USA) consisting of 1500 fragments was used for screening. These fragments have molecular weight ranging from 82.1 to 295.3 Da, with an experimental guarantee of solubility of ≥1 mM in aqueous phosphate buffer and ≥200 mM in DMSO. They satisfy the “rule of three” criteria, i.e., a molecular weight of ≤300 Da, a cLogP of ≤3.0, ≤3 H-bond acceptors or H-bond donors, ≤3 rotatable bonds, and a polar surface area of ≤60 Å^2. Lyophilized powder of each fragments were pre-dissolved in 100% DMSO prior to the screening campaign. A volume of 10 µL of a 4 mM stock solution of each fragment in 100% DMSO was added to 190 µL of a buffer composed of 1.06 × PBS + 1.06% OG so as to obtain a final fragment concentration of 200 µM in PBS + 1% OG + 5% DMSO in a volume of 200 µL. We note that although a higher screening concentration in the mM range would in principle result in higher protein surface occupancy, allowing the detection of weaker interactions, this may also increase the probability of non-specific binding and/or promiscuously binding colloidal aggregates. In addition, the presence of salt and detergent in the buffer helps to stabilize the hAQP1 and also reduces the chances of non-specific binding. The DMSO solvent has a high refractive index and can be a major cause of false positives and plate-to-plate baseline variations. Therefore, it was important to accurately match its concentration in the sample buffer and the running buffer throughout the screening to minimize data inconsistencies during analysis.
The fragments were injected across a reference channel and hAQP1 channel for 2 min at flow rate of 30 µL/min, and then allowed to dissociate in running buffer for another min. Each fragment was injected in duplicates. DMSO calibration was performed for DMSO correction. Reproducibility was monitored with duplicate injections of each sample. No regeneration step was necessary as all fragments were dissociated. Previously validated positive controls, NSC226080 and NSC624169 (not shown), were included over the course of screening to monitor the surface protein activity.
These fragments, together with the positive controls, were diluted into 25, 50, 100 and 200 µM and tested over the same surfaces under the same conditions. DMSO calibration was performed for DMSO correction. Non-stoichiometric binders (potential fragments that aggregate, precipitate, binding non-specifically, etc.) were excluded. Good binders were assayed in a broader concentration range from 6.25 to 800 µM in 2-fold dilutions under the same conditions.
Raw sensorgrams were corrected for DMSO and double referenced (subtraction of the reference flow cell followed by subtraction of the closest buffer blank), which responses were corrected with a reference flow cell and a blank buffer injections. Corrected sensorgrams were y-axis and x-axis corrected at the point of fragment injection. Responses for the varied concentrations for a fragment were overlaid. […]

hAQP1 [3] = biological target: T1, hAQP1; test: Stopped-flow water permeability assay of hAQP1 proteoliposomes; assay type: biochemical
Protocol: Liposomes used in this work were prepared using film rehydration. In this procedure, a thin lipid film of Escherichia coli lipids is formed by drying under a nitrogen stream lipid extract powder (Avanti Polar Lipids Inc., Alabaster, AL, USA) in chloroform. After at least 2 h in a vacuum desiccator, purified aquaporin protein in detergent was added and supplemented with reconstitution buffer (20 mM Tris–HCl pH 8.0) to obtain a protein-to-lipid molar ratio of 1:400. A volume of 1 mL of this reconstitution mixture was incubated for 1 h at room temperature. Uniform sized liposomes were obtained by extrusion through a 400 nm pore-size polycarbonate membrane using an Avestin extruder. […]
The water permeability of proteoliposomes reconstituted with purified aquaporin was determined in a SX20 stopped-flow spectrometer (Applied Photophysics, Leatherhead, UK) with a dead time of 1.1 ms. […] The solution osmolarities were measured using a vapor pressure osmometer (Wescor, Logan, UT, USA). […] The measured average diameter of control liposomes and hAQP1-proteoliposomes were 368 and 262 nm, respectively.
Data was acquired by the Pro-Data SX software and analyzed by Pro-Data Viewer software (Applied Photophysics), where the measured light scattering intensity signals were fitted to an exponential function to obtain the rate constants. […]

human red blood cells = test: Stopped-flow water permeability assay using human red blood cells; assay type: cell-based; conditions: tested at 1 mM
Protocol: As indicated in the introduction, the binders found should not necessarily show inhibition. Nevertheless, we performed stopped-flow assays to test the effects of the seven fragments in Figure 6 on hAQP1 water permeability using human red blood cells. Based on the values of the rate constants of the scattering increase, none of these fragments produced a significant reduction in water permeability when tested at 1 mM (not shown). Several factors may account for this. […] In addition, hAQP1 in red blood cells is highly glycosylated compared to the hAQP1 purified from insect cells, and this may affect binding affinity. Another factor is the orientation of the protein in the membrane, as in theory only one side of the protein (extracellular) is exposed to the drug in RBC assays, whereas both extramembrane domains are exposed when the protein is solubilized in micelles. Another factor, also noted by Seeliger et al., is the high density of AQP1 at the membrane of red blood cells. […] We are at present unable to explain this behavior or relate it to inhibition of hAQP1.

[4] = biological target: T2, E. coli aquaporin Z (E. coli), P60844; test: native gel or EMSA; blue-native PAGE (4%-16% Bis-Tris gel, 4 °C) of purified protein in sample buffer with 100 mM OG, 750 mM aminocaproic acid, 50 mM Bis-Tris HCl pH 7.0, 0.5 mM EDTA; conditions: remark: other sources report otherwise
T2 chain: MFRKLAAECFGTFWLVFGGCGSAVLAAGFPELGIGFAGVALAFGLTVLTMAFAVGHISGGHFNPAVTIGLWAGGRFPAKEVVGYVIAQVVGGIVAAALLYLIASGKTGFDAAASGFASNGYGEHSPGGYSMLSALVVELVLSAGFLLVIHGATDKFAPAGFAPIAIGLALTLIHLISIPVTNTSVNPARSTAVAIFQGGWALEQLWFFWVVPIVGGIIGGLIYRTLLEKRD

[5] = 1:1 steady-state binding model, 6.25 to 800 µM in 2-fold dilutions, 25 °C, read-out: SPR (KD)
[6] = inset table of the Figure 5 sensorgram, read-out: KD (inset table)

Molecule | ΔTagg (+/−) (hAQP1 [1]) | Tagg (hAQP1 [1]) [°C] | SPR binding behaviour (hAQP1 [2]) | Kd (hAQP1 [2]; [5]) [µM] | Kd (hAQP1 [2]; [6]) [µM] | other results
NCCc1coc2ccccc12 [CC40813] | − | 50.3 | binding did not achieve saturation equilibrium at higher concentrations |  |  | Kd (hAQP1 [2]; KD (inset table), inset table of the Figure 5 sensorgram): 133 µM; Kd (hAQP1 [2]; SPR (KD), 1:1 steady-state binding model, 6.25 to 800 µM in 2-fold dilutions, 25 °C): 133 µM
c1ccc2c(c1)CCNCC2 [MO08607] | + | 59.0 ± 0.3 |  | 962 | 962 | dose-dependency of hAQP1 stabilization (hAQP1 [1]): can be considered a true binder; Tagg of hAQP1 (hAQP1 [1]; 50 μM): 61.8 ± 0.6 °C; Tagg of hAQP1 (hAQP1 [1]; 400 µM): 66.3 ± 0.1 °C; Tagg of hAQP1 (hAQP1 [1]; 2000 µM): 86.7 ± 7.2 °C
[Cl][Hg][Cl] [HgCl2, mercuric chloride] |  |  |  |  |  | average fitted rate constant (k) (hAQP1 [3]; 300 µM, 23 °C, means ± S.E., n = 6, without inhibitor 109.4 (±1.9)): 8.56 (±0.03) s^−1; osmotic water permeability coefficient (Pf) (hAQP1 [3]; proteoliposomes pre-incubated with 300 µM, without inhibitor Pf = 0.053): 0.0041 cm/s
Nc1ccc2c(c1)OCCO2 [SB00353] | − | 51.1 |  | 902 | 902 | 
NCc1ccc(-c2ccc(C(F)(F)F)cn2)cc1 [CC53013] | − | 48.6 | fast-on, fast-off kinetics | 1310 | 1310 | 
O=Nc1c(O)ccc2ccccc12 [AC15153] |  |  |  | 337 | 337 | 
NCCNCc1ccccc1 [SB01744] | + | 58.7 ± 0.2 |  |  |  | dose-dependency of hAQP1 stabilization (hAQP1 [1]): could not be interpreted due to inconsistencies in the results
Nc1snnc1-c1ccc(C(F)(F)F)cc1 [MO00656] | − | 51.8 | fast-on, fast-off kinetics | > 800 |  | 
OC1CCCNC1 (stereo not shown) [AC36708] | + | 62.9 ± 0.4 |  |  |  | 
OCc1cccc(-c2ccco2)c1 [CC46109] | + |  |  | 982 | 982 | amplitude of the stopped-flow traces (human red blood cells): large amplitude reduction in the traces
Nc1cccc(CN2CCCC2)c1 [CC55714] | + | 63.6 ± 0.4 |  |  |  | 
Cc1cc2cc(N)ccc2[nH]1 [AC34875] | − | 50.9 | binding did not achieve saturation equilibrium at higher concentrations | 225 | 225 | 
NCc1cccc(N2CCCCC2)n1 [CC38113] | + | 63.3 ± 0.1 |  | 62 | 62.2 | amplitude of the stopped-flow traces (human red blood cells): large amplitude reduction in the traces
CNCc1scc2c1OCCO2 [CC47846] | + | 70.0 ± 1.2 |  |  |  | 
NCCNc1cccc2ccccc12 [AC42399] | − | 48.0 | fast-on, fast-off kinetics | 546 |  | 
B1 |  |  |  |  |  | stoichiometry N [4]: 8
